Strand notation (5' to 3'): a small letter for the sugar, then the base; units joined by * are phosphorothioate-linked, units joined directly phosphodiester-linked; [ ] holds rarer units or linkages, { } end groups; capitals alone tell only the bases. e = 2'-O-(2-methoxyethyl) (MOE); [5mC] = 5-methylcytosine; d = 2'-deoxy (DNA)
System: human PKK mRNA
Experiment: Antisense inhibition of human PKK mRNA in HepaRG cells, 5,000 nM (Example 2)
Type: cell-based
Outline: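 Percent inhibition of PKK mRNA is reported relative to untreated cells, after adjustment for total RNA by RIBOGREEN. Gapmers of 16–20 nucleosides with 2′-MOE wings were delivered at 5,000 nM by electroporation into HepaRG cells and left for roughly 24 hours before RNA isolation.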

[1] = HepaRG cells, 5,000 nM antisense oligonucleotide, 5-10-5 gapmers, Table 17
[2] = Table 13, human PKK mRNA in HepaRG cells, 5-10-5 gapmers
[3] = Table 9 experiment, HepaRG cells, 20,000 cells per well, electroporation with 5,000 nM antisense oligonucleotide, approx. 24 hours, PKK mRNA by RT-PCR (RTS3454), relative to untreated control cells
[4] = Table 10 experiment, HepaRG cells, 20,000 cells per well, electroporation with 5,000 nM antisense oligonucleotide, approx. 24 hours, PKK mRNA by RT-PCR (RTS3454), relative to untreated control cells
[5] = HepaRG cells, electroporation with 5,000 nM antisense oligonucleotide, approximately 24 hours, PKK mRNA by RT-PCR (RTS3454), relative to untreated control cells, Table 5 experiment
[6] = Table 7, HepaRG cells, electroporation with 5,000 nM antisense oligonucleotide, approx. 24 hours, PKK mRNA by RT-PCR (RTS3454), relative to untreated control cells
[7] = HepaRG cells, electroporation, 5,000 nM antisense oligonucleotide, approx. 24 hours, primer probe set RTS3454, relative to untreated control cells, Table 12
[8] = HepaRG cells, electroporation, 5,000 nM antisense oligonucleotide, approx. 24 hours, primer probe set RTS3454, relative to untreated control cells, Table 11
[9] = human PKK mRNA, HepaRG cells, 5-10-5 motif oligonucleotides targeting SEQ ID NO: 1 and 10
[10] = HepaRG cells, 5,000 nM antisense oligonucleotide, 5-10-5 gapmers, Table 16
[11] = HepaRG cells, electroporation with 5,000 nM antisense oligonucleotide, approximately 24 hours, PKK mRNA by RT-PCR (RTS3454), relative to untreated control cells, Table 6 experiment
[12] = Table 8, HepaRG cells, electroporation with 5,000 nM antisense oligonucleotide, approx. 24 hours, PKK mRNA by RT-PCR (RTS3454), relative to untreated control cells
[13] = human PKK mRNA, HepaRG cells, 5,000 nM antisense oligonucleotide, Table 18

Question: With “547020 (eG*eG*eA*eT*e[5mC]*dG*dG*dT*dG*dG*dT*dG*dG*dG*dA*eT*eT*eG*eG*eT; antisense) [compound 547020]” as the substance, how does the “% inhibition” value [1] read?
Answer: 47%

Question: For “547562 (e[5mC]*eT*eT*eT*e[5mC]*dT*dT*dG*dA*dG*dA*d[5mC]*dA*dA*dT*e[5mC]*e[5mC]*e[5mC]*eT*eT; antisense) [compound 547562]”, which “% inhibition” value [2] is on record?
Answer: 59%

Question: With “547462 (antisense eG*eT*eG*eT*eA*dA*dT*dT*d[5mC]*dA*dA*dA*dG*dG*dA*eG*e[5mC]*e[5mC]*eT*eG) [compound 547462]” as the substance, how does the “% inhibition” value [3] read?
Answer: 59%

Question: And the “% inhibition” value [4]?
Answer: 54%

Question: With “547305 (antisense eA*e[5mC]*e[5mC]*eA*eA*dA*d[5mC]*d[5mC]*dT*dT*dT*dT*d[5mC]*dT*d[5mC]*e[5mC]*eA*eT*eG*eT) [compound 547305]” as the substance, how does the “% inhibition” value [5] read?
Answer: 47%

Question: Which “% inhibition” value [6] does the source give for “547392 (eA*eA*eG*eG*e[5mC]*dT*dA*dT*dA*dT*d[5mC]*d[5mC]*dA*dG*dA*eT*eA*eT*eG*eG; antisense) [compound 547392]” here?
Answer: 81%

Question: “546409 (eG*eG*eG*eT*eT*dT*d[5mC]*dT*dG*d[5mC]*d[5mC]*dA*dA*d[5mC]*dA*eG*eT*eT*eT*e[5mC]; antisense) [compound 546409]” was tested. Which “% inhibition” value [7] did it give?
Answer: 77%

Question: For “546328 (antisense eG*eA*eA*eG*e[5mC]*d[5mC]*d[5mC]*d[5mC]*dA*dT*d[5mC]*d[5mC]*dG*dG*dT*eT*eA*e[5mC]*e[5mC]*e[5mC]) [compound 546328]”, which “% inhibition” value [3] is on record?
Answer: 84%

Question: And the “% inhibition” value [4]?
Answer: 81%

Question: How did the “% inhibition” value [5] turn out when “546152 (eG*eT*eA*e[5mC]*eA*dT*dG*dG*dA*dA*dG*d[5mC]*dT*dA*d[5mC]*eA*eT*e[5mC]*e[5mC]*e[5mC]; antisense) [compound 546152]” was run?
Answer: 73%

Question: “547372 (eG*eA*eT*eG*eG*dT*d[5mC]*d[5mC]*dG*dA*d[5mC]*dA*d[5mC]*dA*d[5mC]*eA*eA*eA*eA*eG; antisense) [compound 547372]” was tested. Which “% inhibition” value [6] did it give?
Answer: 32%

Question: Which results are given for “546322 (antisense e[5mC]*eT*eT*eG*eT*dG*dT*d[5mC]*dA*d[5mC]*d[5mC]*dT*dT*dT*dG*eG*eA*eA*eG*eG) [compound 546322]”?
Answer: % inhibition [3]: 74%; % inhibition [4]: 68%

Question: Which “% inhibition” value [8] does the source give for “546383 (antisense eG*eG*eA*eT*eG*d[5mC]*dA*dA*dA*dG*dA*dA*dG*dA*dT*eG*e[5mC]*e[5mC]*eA*e[5mC]) [compound 546383]” here?
Answer: 57%

Question: For “547670 (eT*eA*e[5mC]*eA*eA*d[5mC]*dT*dA*dT*dA*dA*d[5mC]*dA*dG*dT*eA*eT*e[5mC]*eA*e[5mC]; antisense) [compound 547670]”, which “% inhibition” value [9] is on record?
Answer: 0%

Question: Which “% inhibition” value [1] does the source give for “547029 (eT*e[5mC]*eT*eT*e[5mC]*dT*dA*dG*dG*dG*d[5mC]*d[5mC]*dA*d[5mC]*dA*e[5mC]*e[5mC]*eT*e[5mC]*eT; antisense) [compound 547029]” here?
Answer: 50%

Question: “546990 (eA*eG*eA*eA*e[5mC]*dA*dG*dG*dA*dG*dA*d[5mC]*dA*dA*dT*e[5mC]*e[5mC]*eA*e[5mC]*eT; antisense) [compound 546990]” was tested. Which “% inhibition” value [10] did it give?
Answer: 49%

Question: How did the “% inhibition” value [10] turn out when “547701 (antisense e[5mC]*eA*eT*e[5mC]*eA*d[5mC]*dT*dG*dT*dA*d[5mC]*d[5mC]*dT*dA*dT*eA*eA*e[5mC]*eT*eA) [compound 547701]” was run?
Answer: 49%

Question: For “547082 (eT*e[5mC]*eT*e[5mC]*e[5mC]*d[5mC]*dT*dG*dA*dG*dT*d[5mC]*dA*d[5mC]*dA*eG*eT*eG*eG*eA; antisense) [compound 547082]”, which “% inhibition” value [1] is on record?
Answer: 64%

Question: How did the “% inhibition” value [3] turn out when “547478 (antisense e[5mC]*eA*eT*eT*e[5mC]*dT*dT*d[5mC]*dA*dT*dT*dT*dG*dT*dT*eA*e[5mC]*e[5mC]*eA*eA) [compound 547478]” was run?
Answer: 85%

Question: What about the “% inhibition” value [4] of the same substance?
Answer: 55%

Question: Which “% inhibition” value [11] does the source give for “547326 (antisense eA*eT*eG*eA*e[5mC]*d[5mC]*dA*d[5mC]*dA*dT*dT*dG*d[5mC]*dT*dT*e[5mC]*eA*eA*eG*eG) [compound 547326]” here?
Answer: 48%

Question: Which “% inhibition” value [6] does the source give for “547402 (eT*eT*eT*eA*eG*dA*dA*dT*dG*dG*d[5mC]*dA*dG*dG*dG*eT*eT*e[5mC]*eA*eG; antisense) [compound 547402]” here?
Answer: 59%

Question: “546910 (eT*eA*eA*e[5mC]*eA*dA*dT*dA*dT*d[5mC]*dA*d[5mC]*dT*dG*dT*eA*e[5mC]*e[5mC]*eT*eT; antisense) [compound 546910]” was tested. Which “% inhibition” value [9] did it give?
Answer: 82%

Question: With “546831 (eT*e[5mC]*eT*eA*eA*d[5mC]*dA*dG*dT*dA*dT*d[5mC]*dA*d[5mC]*dT*eG*eT*eA*e[5mC]*eT; antisense) [compound 546831]” as the substance, how does the “% inhibition” value [2] read?
Answer: 79%

Question: How did the “% inhibition” value [12] turn out when “546265 (eG*eT*e[5mC]*eT*eT*d[5mC]*dT*dG*dG*dG*dA*dG*dT*dA*dA*eA*eG*eA*eA*eT; antisense) [compound 546265]” was run?
Answer: 65%

Question: Which “% inhibition” value [9] does the source give for “547649 (eA*e[5mC]*e[5mC]*eT*eA*dT*dA*dA*d[5mC]*dA*dG*dT*dA*dT*d[5mC]*eA*e[5mC]*eT*eG*eT; antisense) [compound 547649]” here?
Answer: 73%

Question: Which “% inhibition” value [7] does the source give for “546406 (eT*eG*eT*e[5mC]*e[5mC]*dT*dG*dT*d[5mC]*dA*dA*d[5mC]*dA*dT*dA*eT*eT*e[5mC]*e[5mC]*eA; antisense) [compound 546406]” here?
Answer: 80%

Question: “547334 (antisense eA*eA*eT*eG*eT*d[5mC]*dT*d[5mC]*dG*dA*dT*dG*dG*d[5mC]*dA*eA*eG*e[5mC]*eA*e[5mC]) [compound 547334]” was tested. Which “% inhibition” value [11] did it give?
Answer: 74%

Question: For “547578 (eG*eT*e[5mC]*e[5mC]*eT*dA*dT*dA*dA*d[5mC]*dT*d[5mC]*dT*dA*dA*e[5mC]*eA*eG*eT*eA; antisense) [compound 547578]”, which “% inhibition” value [2] is on record?
Answer: 30%

Question: How did the “% inhibition” value [13] turn out when “548749 (antisense eT*eG*eT*eA*d[5mC]*dT*dA*dG*dT*dT*dT*d[5mC]*d[5mC]*dT*eA*eT*eA*eA) [compound 548749]” was run?
Answer: 0%

Question: “547384 (eA*eA*eA*e[5mC]*eA*dT*dT*dT*d[5mC]*dT*dT*dT*dG*dT*dG*eA*e[5mC]*eT*e[5mC]*eG; antisense) [compound 547384]” was tested. Which “% inhibition” value [6] did it give?
Answer: 50%

Question: For “547686 (antisense e[5mC]*eT*eG*eT*e[5mC]*d[5mC]*dT*dA*dT*dA*dA*d[5mC]*dT*dA*dT*eA*eT*e[5mC]*eA*e[5mC]) [compound 547686]”, which “% inhibition” value [10] is on record?
Answer: 36%

Question: “547319 (antisense eG*eA*eA*eT*eG*dT*d[5mC]*d[5mC]*dA*dG*dA*dA*dA*d[5mC]*dT*eG*e[5mC]*eA*e[5mC]*e[5mC]) [compound 547319]” was tested. Which “% inhibition” value [11] did it give?
Answer: 62%

Question: For “546306 (antisense eT*eT*eT*eG*eG*dT*dG*dA*dA*dT*dA*dA*dT*dA*dA*eT*e[5mC]*eT*e[5mC]*eT) [compound 546306]”, which “% inhibition” value [3] is on record?
Answer: 65%

Question: What about the “% inhibition” value [4] of the same substance?
Answer: 71%

Question: For “547417 (eT*e[5mC]*e[5mC]*eT*eT*dA*d[5mC]*dA*dG*dT*d[5mC]*dT*dT*d[5mC]*dT*eG*eG*eG*eA*eG; antisense) [compound 547417]”, which “% inhibition” value [12] is on record?
Answer: 68%

Question: How did the “% inhibition” value [13] turn out when “548764 (antisense eT*eA*eT*e[5mC]*dA*d[5mC]*dT*dG*dT*d[5mC]*d[5mC]*dT*dA*eT*eA*eA*e[5mC]) [compound 548764]” was run?
Answer: 31%

Question: For “547498 (antisense e[5mC]*eT*eG*eG*eA*d[5mC]*dT*dG*d[5mC]*dT*dT*d[5mC]*dT*d[5mC]*dA*eT*eG*e[5mC]*eT*eG) [compound 547498]”, which “% inhibition” value [8] is on record?
Answer: 44%

Question: How did the “% inhibition” value [12] turn out when “547410 (e[5mC]*eA*eA*eG*eT*d[5mC]*dT*d[5mC]*dT*dT*dG*dG*d[5mC]*dA*dA*eA*e[5mC]*eA*eT*eT; antisense) [compound 547410]” was run?
Answer: 88%

Question: “547304 (antisense e[5mC]*eT*eT*eT*eT*d[5mC]*dT*d[5mC]*d[5mC]*dA*dT*dG*dT*d[5mC]*dA*eT*eT*eG*eA*eT) [compound 547304]” was tested. Which “% inhibition” value [5] did it give?
Answer: 71%

Question: For “547369 (eA*eA*eG*e[5mC]*eA*dT*d[5mC]*dT*dG*dG*dA*dG*dT*dG*dA*eG*eA*eA*e[5mC]*e[5mC]; antisense) [compound 547369]”, which “% inhibition” value [6] is on record?
Answer: 76%

Question: With “546236 (eG*eT*eT*eA*eA*dA*dA*dG*dG*d[5mC]*dT*dA*dT*dA*dT*e[5mC]*e[5mC]*eA*eG*eA; antisense) [compound 546236]” as the substance, how does the “% inhibition” value [6] read?
Answer: 50%

Question: Which “% inhibition” value [2] does the source give for “546747 (e[5mC]*eT*e[5mC]*e[5mC]*e[5mC]*dA*d[5mC]*dT*dG*dA*d[5mC]*dT*dG*dA*d[5mC]*eT*eA*e[5mC]*eT*e[5mC]; antisense) [compound 546747]” here?
Answer: 64%
